# Experimental data reported in patent US20150353495A1 (PORTOLA PHARMACEUTICALS, INC., priority 2010, published 2015).
# pIC50: −log10 of the molar value. Counter-ions that a name gives are not always drawn.
# Columns and labels:
# [1] = system: JAK1/3 signaling to STAT6 in Ramos B cells; experiment: IL4 stimulation of JAK1/3 signaling to STAT6 in Ramos B cells (pSTAT6 Y641, FACS); assay type: cell-based; settings: Homo sapiens; for inhibition at 0.2 µM: 0.2 uM compound, read-out: IL-4/STAT6 in Ramos Percent Inhibition at 0.2 uM; for inhibition at 1 µM: 1.0 uM compound, read-out: IL-4/STAT6 in Ramos Percent Inhibition at 1.0 uM
# Description: IL4 stimulation of JAK1/3 signaling to STATE in Ramos B cells:
# As an alternative strategy to measure effect of JAK3 inhibitors on JAK1/3 dependent cytokine signaling pathways, IL4 stimulation of the Ramos Burkett's B cell line is used. IL4 engages a receptor consisting of the IL4 receptor alpha chain and the common gamma chain. […] Ramos B cells are suspended in tissue culture media containing 10% fetal calf serum at 10×10̂6 cells/ml. 100 μl aliquots are pre-treated for 1 hour with various concentrations of compound, and then stimulated for 15 minutes with 15 ng IL4. The signaling reaction is terminated by fixing in 2% paraformaldehyde for 10 minutes at room temperature. Fixed cells are then washed and permeablized by suspension in 100% methanol at −80° C. Following overnight incubation at 4° C., cells are washed and resuspended in PBS containing 0.5% bovine serum albumin containing pSTAT6 Y641-PE conjugated antibody. After 1 hour incubation, cells are washed and the extent of STAT6 phosphorlyation in Ramos cells is measured by FACS analysis.
# TYK2 = target: T1, TYK2 (Homo sapiens, UniProt P29597); experiment: Z'-LYTE kinase assay TYK2; assay type: biochemical
# T1 construct: 5 μl of catalytic domain recombinant Kinase enzyme+Tyr peptide substrate (Invitrogen, CA); purchased Invitrogen
# T1 sequence (P29597 897-1176 limits assumed): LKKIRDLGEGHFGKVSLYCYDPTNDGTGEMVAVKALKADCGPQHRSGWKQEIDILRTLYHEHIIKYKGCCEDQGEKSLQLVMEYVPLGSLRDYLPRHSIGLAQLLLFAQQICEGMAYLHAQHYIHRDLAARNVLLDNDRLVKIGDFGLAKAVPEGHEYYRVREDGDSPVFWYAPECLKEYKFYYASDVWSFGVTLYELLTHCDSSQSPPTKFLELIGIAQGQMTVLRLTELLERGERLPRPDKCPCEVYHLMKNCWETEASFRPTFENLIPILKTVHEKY
# In short: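 Recombinant catalytic-domain TYK2 with Tyr6 peptide in Z′-LYTE FRET format, 1% DMSO final, kinase reaction 1 h at room temperature, then protease development 1 h. Fluorescence read at 445/520 nm (excitation 400 nm), percent phosphorylation vs no-inhibitor control, IC50 from 4-parameter logistic fit.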
# JAK2 = target: T2, JAK2 (Homo sapiens, UniProt O60674); experiment: Z'-LYTE kinase assay JAK2; assay type: biochemical
# T2 construct: 5 μl of catalytic domain recombinant Kinase enzyme+Tyr peptide substrate (Invitrogen, CA); purchased Invitrogen
# In short: (§1)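 Read-out is FRET fluorescence between coumarin and fluorescein on a Tyr6 peptide, lost when the development protease cleaves unphosphorylated substrate. Kinase reaction used recombinant catalytic domain with ATP, 1 h at room temperature, 1% DMSO.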
# JAK3 = target: T3, JAK3 (Homo sapiens, UniProt P52333); experiment: Z'-LYTE kinase assay JAK3; assay type: biochemical
# T3 construct: 5 μl of catalytic domain recombinant Kinase enzyme+Tyr peptide substrate (Invitrogen, CA); purchased Invitrogen
# In short: as §1
# JAK1 = target: T4, JAK1 (Homo sapiens, UniProt P23458); experiment: Z'-LYTE kinase assay JAK1; assay type: biochemical
# T4 construct: 5 μl of catalytic domain recombinant Kinase enzyme+Tyr peptide substrate (Invitrogen, CA); purchased Invitrogen
# In short: as §1
# T3 sequence (P52333 822-1111 limits assumed): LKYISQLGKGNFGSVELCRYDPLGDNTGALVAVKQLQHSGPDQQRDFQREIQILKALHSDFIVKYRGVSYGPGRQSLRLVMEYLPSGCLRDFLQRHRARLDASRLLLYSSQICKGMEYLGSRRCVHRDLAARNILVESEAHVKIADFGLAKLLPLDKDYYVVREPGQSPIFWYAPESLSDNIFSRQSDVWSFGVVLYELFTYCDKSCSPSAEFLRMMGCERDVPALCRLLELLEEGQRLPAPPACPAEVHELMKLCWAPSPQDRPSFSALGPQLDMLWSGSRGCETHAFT
# T4 sequence (P23458 875-1153 limits assumed): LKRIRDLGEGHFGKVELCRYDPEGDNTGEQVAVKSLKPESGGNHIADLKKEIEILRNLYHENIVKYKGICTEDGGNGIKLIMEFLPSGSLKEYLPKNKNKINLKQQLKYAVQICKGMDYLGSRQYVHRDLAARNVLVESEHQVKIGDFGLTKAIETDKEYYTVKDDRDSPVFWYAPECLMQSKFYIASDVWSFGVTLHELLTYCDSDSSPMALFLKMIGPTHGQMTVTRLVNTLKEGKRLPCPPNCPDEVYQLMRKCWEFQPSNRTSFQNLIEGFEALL
# T2 sequence (O60674 849-1124 limits assumed): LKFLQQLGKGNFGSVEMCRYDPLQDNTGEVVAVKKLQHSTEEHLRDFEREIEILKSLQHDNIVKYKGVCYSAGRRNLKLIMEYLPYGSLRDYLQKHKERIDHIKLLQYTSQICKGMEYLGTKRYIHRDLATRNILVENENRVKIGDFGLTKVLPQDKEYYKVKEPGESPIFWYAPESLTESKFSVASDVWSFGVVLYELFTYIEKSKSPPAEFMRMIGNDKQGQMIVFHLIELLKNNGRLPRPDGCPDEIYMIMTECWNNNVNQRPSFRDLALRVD
Structure (SMILES),pIC50 (TYK2),pIC50 (JAK2),pIC50 (JAK3),pIC50 (JAK1),inhibition at 0.2 µM [1] [%],inhibition at 1 µM [1] [%]
"NC(=O)c1cnc(Nc2ccc(CN3CCOCC3)cc2)cc1NCc1ccccc1 [Example 431, 4-(benzylamino)-6-(4-(morpholinomethyl)phenylamino)nicotinamide]",< 6.00,6.00 to 7.00,8.00 to 9.00,< 6.00,7,24
"NC(=O)c1cnc(Nc2ccc(N3CCOCC3)cc2)cc1Nc1ccc(N2CCOCC2)cc1 [Example 16, 4,6-bis(4-morpholinophenylamino)nicotinamide]",< 6.00,< 6.00,7.00 to 8.00,< 6.00,17,46
NC(=O)c1cnc(Nc2cccc(OCCN3CCOCC3)c2)cc1NCc1cccc(F)c1 [Example 228],< 6.00,6.00 to 7.00,8.00 to 9.00,6.00 to 7.00,24,48
"COCCOc1ccc(Nc2cc(NCc3ccccc3)c(C(N)=O)cn2)cc1 [Example 432, 4-(benzylamino)-6-(4-(2-methoxyethoxyl)phenylamino)nicotinamide]",< 6.00,6.00 to 7.00,7.00 to 8.00,< 6.00,16,17
"CNC(=O)c1cccc(Nc2cc(NCc3ccccc3)c(C(N)=O)cn2)c1 [Example 246, 4-(benzylamino)-6-(3-(methylcarbamoyl)phenylamino)nicotinamide]",< 6.00,6.00 to 7.00,7.00 to 8.00,6.00 to 7.00,6,11
"NC(=O)c1cnc(Nc2ccc(N3CCCC3=O)c(Cl)c2)cc1NCc1cccc(F)c1 [Example 62, 6-(3-chloro-4-(2-oxopyrrolidin-1-yl)phenylamino)-4-(3-fluorobenzylamino)nicotinamide]",< 6.00,6.00 to 7.00,7.00 to 8.00,6.00 to 7.00,29,42
"NC(=O)c1cnc(Nc2ccc(N3CCCCC3)cc2)cc1N[C@H](CO)c1ccccc1 [Example 75, (S)-4-(2-hydroxy-1-phenylethylamino)-6-(4-(piperidin-1-yl)phenylamino)nicotinamide]",< 6.00,< 6.00,7.00 to 8.00,< 6.00,11,26
"CN(C)C(=O)c1ccc(Nc2cc(NCc3ccccc3)c(C(N)=O)cn2)cc1 [Example 248, 4-(benzylamino)-6-(4-(dimethylcarbamoyl)phenylamino)nicotinamide]",6.00 to 7.00,6.00 to 7.00,8.00 to 9.00,6.00 to 7.00,24,50
CC(=O)N1CCN(c2ccc(Nc3cc(NCc4cccnc4)c(C(N)=O)cn3)cc2)CC1 [Example 233],6.00 to 7.00,6.00 to 7.00,8.00 to 9.00,6.00 to 7.00,17,33
"NC(=O)c1cnc(Nc2cccc(N3CCOCC3)c2)cc1NCc1ccccc1 [Example 31, 4-(benzylamino)-6-(3-morpholinophenylamino)nicotinamide]",6.00 to 7.00,6.00 to 7.00,8.00 to 9.00,6.00 to 7.00,27,50
"NC(=O)c1cnc(Nc2cccc(OCC(=O)N3CCOCC3)c2)cc1NCc1ccccc1 [Example 430, 4-(benzylamino)-6-(3-(2-morpholino-2-oxoethoxy)phenylamino)nicotinamide]",6.00 to 7.00,6.00 to 7.00,8.00 to 9.00,6.00 to 7.00,15,36

# More lines, main results first:
pIC50 (TYK2),pIC50 (JAK2),pIC50 (JAK3),pIC50 (JAK1),Structure (SMILES),inhibition at 0.2 µM [1] [%],inhibition at 1 µM [1] [%]
6.00 to 7.00,7.00 to 8.00,8.00 to 9.00,6.00 to 7.00,"NC(=O)c1cnc(Nc2ccc(N3CCOCC3)cc2)cc1NCc1ccccc1F [Example 73, 4-(2-fluorobenzylamino)-6-(4-morpholinophenylamino)nicotinamide]",23,53
6.00 to 7.00,7.00 to 8.00,7.00 to 8.00,6.00 to 7.00,"CC(=O)N1CCN(c2ccc(Nc3cc(NCc4ccccc4)c(C(N)=O)cn3)cc2)CC1 [Example 3, 6-(4-(4-acetylpiperazin-1-yl)phenylamino)-4-(benzylamino)nicotinamide]",22,43
7.00 to 8.00,6.00 to 7.00,7.00 to 8.00,6.00 to 7.00,"NC(=O)c1cnc(Nc2ccc(C(=O)N3CCCC3)cc2)cc1NCC1CCCC1 [Example 41, 4-(cyclopentylmethylamino)-6-(4-(pyrrolidine-1-carbonyl)phenylamino)nicotinamide]",31,59
6.00 to 7.00,7.00 to 8.00,8.00 to 9.00,6.00 to 7.00,"CC(=O)N1CCN(c2ccc(Nc3cc(NCc4cccc(Cl)c4)c(C(N)=O)cn3)cc2)CC1 [Example 257, 6-(4-(4-acetylpiperazin-1-yl)phenylamino)-4-(3-chlorobenzylamino)nicotinamide]",34,65
6.00 to 7.00,7.00 to 8.00,8.00 to 9.00,6.00 to 7.00,"COCC(=O)N1CCC(c2ccc(Nc3cc(NCc4ccccc4F)c(C(N)=O)cn3)cc2)CC1 [Example 116, 4-(2-fluorobenzylamino)-6-(4-(1-(2-methoxyacetyl)piperidin-4-yl)phenylamino)nicotinamide]",25,43
6.00 to 7.00,6.00 to 7.00,7.00 to 8.00,< 6.00,"NC(=O)c1cnc(Nc2ccc(N3CCCCC3)cc2)cc1NCc1ccccc1F [Example 74, 4-(2-fluorobenzylamino)-6-(4-(piperidin-1-yl)phenylamino)nicotinamide]",21,43
6.00 to 7.00,7.00 to 8.00,8.00 to 9.00,6.00 to 7.00,"CC(=O)N1CCN(c2ccc(Nc3cc(NCc4ccccc4F)c(C(N)=O)cn3)cc2)CC1 [Example 258, 6-(4-(4-acetylpiperazin-1-yl)phenylamino)-4-(2-fluorobenzylamino)nicotinamide]",39,63
6.00 to 7.00,7.00 to 8.00,8.00 to 9.00,6.00 to 7.00,"C[N+]1(C)CCC(c2ccc(Nc3cc(NCc4cccc(F)c4)c(C(N)=O)cn3)cc2)CC1 [Example 78, 4-(4-(5-carbamoyl-4-(3-fluorobenzylamino)pyridin-2-ylamino)phenyl)-1,1-dimethylpiperidinium formate]",,14
6.00 to 7.00,6.00 to 7.00,8.00 to 9.00,6.00 to 7.00,"NC(=O)c1cnc(Nc2ccc(C3CCN(C4CCCC4)CC3)cc2)cc1NCc1ccccc1F [Example 109, 6-(4-(1-cyclopentylpiperidin-4-yl)phenylamino)-4-(2-fluorobenzylamino)nicotinamide]",23,60
6.00 to 7.00,6.00 to 7.00,7.00 to 8.00,< 6.00,"CC(=O)N1CCN(c2ccc(Nc3cc(N[C@H]4CCc5ccccc54)c(C(N)=O)cn3)cc2)CC1 [Example 255, (S)-6-(4-(4-acetylpiperazin-1-yl)phenylamino)-4-(2,3-dihydro-1H-inden-1-ylamino)nicotinamide]",11,18
6.00 to 7.00,7.00 to 8.00,8.00 to 9.00,6.00 to 7.00,"CN(C)C(=O)c1ccc(Nc2cc(NCc3cc(F)ccc3F)c(C(N)=O)cn2)cc1 [Example 92, 4-(2,5-difluorobenzylamino)-6-(4-(dimethylcarbamoyl)phenylamino)nicotinamide]",41,67
